Experimental data published in PubChem BioAssay (NCI).
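Assay format: 96-well plates, 48-hour exposure. The concentration for 50% growth inhibition is given as GI50. TGI: concentration producing complete growth inhibition.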

Key:
Test in all cases: inhibition of tumour cell growth, NCI panel, 48 h
OVCAR-5 ovarian = system: OVCAR-5 ovarian
HT29 colon = system: HT29 colon
COLO 205 colon = system: COLO 205 colon
T-47D breast = system: T-47D breast
NCI-H226 lung = system: NCI-H226 lung
MDA-MB-435 = system: MDA-MB-435
MDA-MB-231 breast = system: MDA-MB-231 breast
SF-539 CNS = system: SF-539 CNS
HS 578T breast = system: HS 578T breast
HCT-116 colon = system: HCT-116 colon

SMILES | GI50 (OVCAR-5 ovarian) | TGI (OVCAR-5 ovarian) | GI50 (HT29 colon) | TGI (HT29 colon) | GI50 (COLO 205 colon) | TGI (COLO 205 colon) | GI50 (T-47D breast) | TGI (T-47D breast) | GI50 (NCI-H226 lung) | TGI (NCI-H226 lung) | GI50 (MDA-MB-435) | TGI (MDA-MB-435) | GI50 (MDA-MB-231 breast) | TGI (MDA-MB-231 breast) | GI50 (SF-539 CNS) | TGI (SF-539 CNS) | GI50 (HS 578T breast) | TGI (HS 578T breast) | GI50 (HCT-116 colon) | TGI (HCT-116 colon)
CCN(CC)c1ccc(N=C2C=C(C(=O)Nc3ccc(S(C)(=O)=O)cc3)C(=O)c3ccccc32)c(C)c1 | > 100 µM | > 100 µM | > 100 µM | > 100 µM | 32.7 µM | > 100 µM | 51.9 µM | > 100 µM | > 100 µM | > 100 µM | 7.49 µM | 54.8 µM | 4.53 µM | > 100 µM | 1.07 µM | > 100 µM | 1.87 µM | > 100 µM | 12.6 µM | > 100 µM
CNc1nc(C)c(-c2nc(Nc3cccc(S(N)(=O)=O)c3)ncc2F)s1 | 0.0324 µM | 15.1 µM | 0.0605 µM | 10.8 µM | 0.0212 µM | 0.0532 µM | 0.0274 µM | 0.472 µM | 0.0219 µM | 3.54 µM | 0.0379 µM | 2.45 µM | 0.0416 µM | 5.98 µM | 0.0233 µM | 0.0664 µM | 0.0429 µM | 3.97 µM | < 0.0161 µM | 12.5 µM
C[C@@H]1COCCN1c1nc(-c2cnc(N)cc2C(F)F)nc(N2[C@H](C)COC[C@@H]2C)n1 | 0.392 µM | 16.5 µM | 0.349 µM | 12.9 µM | 0.371 µM | 12.5 µM | 0.0422 µM | 0.644 µM | 0.2 µM | 11.2 µM | 0.321 µM | 10.6 µM | 0.412 µM | 20.8 µM | 0.264 µM | 6.66 µM | 0.128 µM | 0.611 µM | 0.485 µM | 14.5 µM
CCON=C1C(C)(C)C(C)(C)C(C)(C)C1(C)C |  | > 100 µM |  | > 100 µM |  | > 100 µM |  | > 100 µM |  | > 100 µM |  | > 100 µM |  | > 100 µM |  | > 100 µM |  | > 100 µM |  | > 100 µM
CCCCCCCCCCCCCCCC(=O)OCC1OC(n2cnc3c(=S)nc(N)[nH]c32)C(OC(=O)CCCCCCCCCCCCCCC)C1OC(=O)CCCCCCCCCCCCCCC (stereo not given) | 3.4 µM | > 39.3 µM | 3.22 µM | > 50 µM | 7.39 µM | 35.8 µM | 2 µM | > 50 µM | 8.59 µM | > 50 µM | 3.68 µM | > 50 µM | 2.66 µM | > 22.1 µM | 6.95 µM | > 50 µM | 13 µM | > 50 µM | 1.8 µM | > 50 µM
COc1ccc(Nc2ccnc(NCCNc3ccnc4cc(Cl)ccc34)n2)cc1 | 1.29 µM | 7.13 µM | 0.546 µM | 8.28 µM | 1.45 µM | 3.24 µM | 1.61 µM | 5.72 µM | 7.29 µM | 21.1 µM | 1.5 µM | 2.9 µM | 2.01 µM | 6.71 µM | 1.59 µM | 3.2 µM | 2 µM | 5.91 µM | 0.533 µM | 3.78 µM
Cn1c(=O)c(Oc2cccc(F)c2)cc2cnc(NC3CCOCC3)nc21 | > 25 µM | > 25 µM | > 25 µM | > 25 µM | > 25 µM | > 25 µM | > 25 µM | > 25 µM | > 25 µM | > 25 µM | > 25 µM | > 25 µM | > 25 µM | > 25 µM | > 25 µM | > 25 µM | > 25 µM | > 25 µM | > 25 µM | > 25 µM
Cc1cc(=O)c2cc(N=Cc3ccc([N+](=O)[O-])o3)ccc2o1 |  | > 100 µM |  | > 100 µM |  | > 100 µM |  | > 100 µM |  | > 100 µM |  | > 100 µM |  | > 100 µM |  | > 100 µM |  | > 100 µM |  | > 100 µM
NC1C2C(CC(=O)O)OCC=C3CN4CCC1(C(=O)C(=O)O)C4CC32 (stereo not given) |  | > 100 µM |  | > 100 µM |  | > 100 µM |  | > 100 µM |  | > 100 µM |  | > 100 µM |  | > 100 µM |  | > 100 µM |  | > 100 µM |  | > 100 µM
CCc1ccc(-c2ccc(=O)n(-c3ccc(S(N)(=O)=O)cc3)n2)cc1 | > 64.4 µM | > 100 µM | 0.484 µM | > 100 µM | 1.95 µM | > 55.6 µM | 3.85 µM | > 100 µM | 21.1 µM | > 100 µM | 0.252 µM | 1.71 µM | 14.6 µM | > 100 µM | 3.15 µM | 32.1 µM | 1.55 µM | 23.6 µM | 0.951 µM | > 43.7 µM
CN(C)C(=S)NN=C(c1ccccn1)c1ccccn1 | 0.045 µM | 27.4 µM | < 0.01 µM | > 100 µM | < 0.01 µM | 11.8 µM |  | > 44.9 µM | 0.0445 µM | 12.7 µM | 0.076 µM | 16.7 µM | 0.0412 µM | 27.8 µM | 0.0425 µM | 4.64 µM |  | > 55.4 µM | < 0.01 µM | 11 µM
CC1=C(C(=O)Nc2ccc3[nH]ncc3c2)C(c2ccc(F)cc2)NC(=O)N1 (stereo not given) | > 25 µM | > 25 µM | > 25 µM | > 25 µM | > 25 µM | > 25 µM | > 25 µM | > 25 µM | 6.46 µM | > 25 µM | > 25 µM | > 25 µM | > 25 µM | > 25 µM | > 25 µM | > 25 µM | 7.41 µM | > 25 µM | > 25 µM | > 25 µM
O=C1CSC2=NCC3(NN12)c1ccccc1-c1ccccc13 |  |  |  | > 10 µM |  | > 10 µM |  | > 10 µM |  | > 10 µM |  | > 10 µM |  | > 10 µM |  | > 10 µM |  | > 10 µM |  | > 10 µM
OCc1cccc(-c2ccc3ncc(-c4nc(NC5CC5)ncc4F)n3c2)c1 |  |  | 0.329 µM | > 100 µM | 0.242 µM | 0.656 µM | 0.274 µM | 3.93 µM | 0.301 µM | 1.47 µM | 0.284 µM | 0.919 µM | 0.286 µM | 1.04 µM | 0.162 µM | 0.454 µM | 0.212 µM | 0.701 µM | 0.182 µM | > 100 µM
